According to PMC9105517, “Biological Activities of Lichen-Derived Monoaromatic Compounds” (Molecules, 2022):
≈ marks a conversion by molar mass, not a printed value. Read-outs that look alike come from different tables or passages of the source.

Tests used:
Staphylococcus aureus [1] = test: Agar well diffusion antimicrobial assay; type: cell-based; conditions: 8 mm wells
Experimental: (§1) The agar well diffusion method was utilized to investigate the antibacterial activity of the isolated compounds on antibiotic-resistant, pathogenic bacteria E. faecium, S. aureus, and A. baumannii. Three bacterial pathogens were cultured in nutrient broth at 37 °C for 18 h. The cultures were diluted with sterile 0.9% NaCl to obtain bacterial solutions of 1.5 × 10^8 CFU/mL. This solution with a volume of 100 μL was spread on a Mueller-Hinton agar plate. Holes with a diameter of 8 mm were punched aseptically to create wells on the surface of the Mueller–Hinton agar. The compounds were dissolved in DMSO. The amount of 50 µg of each compound solution was inserted into the wells. The plates were incubated at 37 °C for 16–18 h and the antibacterial activity of each compound was recorded by measuring the diameters of the inhibition zones surrounding the wells. The determination of the minimum inhibitory concentration of 9a against Staphylococcus aureus was performed by the agar dilution method. Compound 9a was dissolved in DMSO to the final concentration of 1 mg/mL and then diluted with Mueller–Hinton agar (MHA) to the concentration range of 0, 1, 2, 4, 8, 16, 32, 64 μg/mL as the final concentrations in MHA plates. S. aureus was cultured in nutrient broth at 37 °C overnight with shaking. […] 1 μL of the diluted bacterial solution (10^4 CFU) was placed on the surface of the MHA plates and the plates were incubated at 37 °C for 16–18 h. The MIC value was recorded as the lowest concentration of 9a that inhibited the growth of S. aureus. Kanamycin was chosen as the positive control in this experiment, while DMSO was regarded as a control.

Acinetobacter baumannii = test: Agar well diffusion antimicrobial assay; type: cell-based; conditions: 8 mm wells
Experimental: as §1

Enterococcus faecium = test: Agar well diffusion antimicrobial assay; type: cell-based; conditions: 8 mm wells
Experimental: as §1

[2] = target: T1, Saccharomyces cerevisiae α-glucosidase (E.C 3.2.1.20) (Saccharomyces cerevisiae, UniProt P53341); test: biochemical
T1 construct: purchased Sigma Aldrich Co (Saint Louis, MO, USA)
T1 sequence (P53341 whole entry): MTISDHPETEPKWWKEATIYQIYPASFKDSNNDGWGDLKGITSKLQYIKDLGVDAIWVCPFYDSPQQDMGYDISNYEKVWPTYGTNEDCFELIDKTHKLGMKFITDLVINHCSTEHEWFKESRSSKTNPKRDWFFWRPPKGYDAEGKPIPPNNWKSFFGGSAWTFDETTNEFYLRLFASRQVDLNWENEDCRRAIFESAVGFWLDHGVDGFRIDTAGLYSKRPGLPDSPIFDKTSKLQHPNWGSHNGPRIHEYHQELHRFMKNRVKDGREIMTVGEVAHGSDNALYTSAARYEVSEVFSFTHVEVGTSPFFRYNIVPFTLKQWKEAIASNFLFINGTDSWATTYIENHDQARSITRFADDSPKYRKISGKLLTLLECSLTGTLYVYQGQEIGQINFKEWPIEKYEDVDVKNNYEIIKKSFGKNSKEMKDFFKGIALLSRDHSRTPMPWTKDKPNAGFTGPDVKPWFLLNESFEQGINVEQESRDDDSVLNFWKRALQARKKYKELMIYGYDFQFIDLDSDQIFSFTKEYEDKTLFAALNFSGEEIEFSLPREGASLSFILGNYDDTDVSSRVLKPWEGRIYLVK
Experimental: The alpha-glucosidase (0.2 U/mL) and substrate (5.0 mM pNPG) were dissolved in 100 mM pH 6.9 sodium phosphate buffer. The inhibitor (50 µL) was preincubated with alpha-glucosidase at 37 °C for 20 min, and the substrate (40 µL) was subsequently added to the reaction mixture. The enzymatic reaction was conducted at 37 °C for 20 min and ended by adding 0.2 M Na2CO3 (130 μL). Enzymatic activity was quantitatively measured at an absorbance of 405 nm (CLARIOstar plus, BMG LABTECH, Ortenberg, Germany). All samples were analyzed in triplicate at five different concentrations around the IC50 values, and the mean values were retained. The following equation was used to calculate the inhibition percentage (%): Inhibition (%) = [1 − (Asample/Acontrol)] × 100.

alpha-glucosidase = system: alpha-glucosidase; set-up: method as in doi:10.1007/s10600-021-03404-z, PMID 33656403, PMID 29968482, PMID 18981604; conditions: cited from earlier work
[3] = system: S. aureus, Bacillus subtilis, Pseudomonas aeruginosa, Candida albicans, Escherichia coli, and Aspergillus niger; set-up: method as in PMID 3834834; conditions: various microorganisms; cited from earlier work
various microorganisms = system: various microorganisms; set-up: method as in doi:10.1007/s11101-010-9201-1, PMID 12487331; conditions: cited from earlier work
Staphylococcus aureus [4] = test: Minimum inhibitory concentration by agar dilution method; type: cell-based; conditions: 37 °C, 16–18 h
Experimental: The agar well diffusion method was utilized to investigate the antibacterial activity of the isolated compounds on antibiotic-resistant, pathogenic bacteria E. faecium, S. aureus, and A. baumannii. Three bacterial pathogens were cultured in nutrient broth at 37 °C for 18 h. The cultures were diluted with sterile 0.9% NaCl to obtain bacterial solutions of 1.5 × 10^8 CFU/mL. This solution with a volume of 100 μL was spread on a Mueller-Hinton agar plate. Holes with a diameter of 8 mm were punched aseptically to create wells on the surface of the Mueller–Hinton agar. The compounds were dissolved in DMSO. The amount of 50 µg of each compound solution was inserted into the wells. The plates were incubated at 37 °C for 16–18 h and the antibacterial activity of each compound was recorded by measuring the diameters of the inhibition zones surrounding the wells. The determination of the minimum inhibitory concentration of 9a against Staphylococcus aureus was performed by the agar dilution method. Compound 9a was dissolved in DMSO to the final concentration of 1 mg/mL and then diluted with Mueller–Hinton agar (MHA) to the concentration range of 0, 1, 2, 4, 8, 16, 32, 64 μg/mL as the final concentrations in MHA plates. S. aureus was cultured in nutrient broth at 37 °C overnight with shaking. […] The MIC value was recorded as the lowest concentration of 9a that inhibited the growth of S. aureus. […]

[5] = in vitro, 37 °C, pH 6.9, triplicate, read-out: IC50, alpha-glucosidase inhibitory activity (converted)

## CN[C@@H]1[C@@H](O[C@H]2O[C@H](CO)[C@@H](N)[C@H](O)[C@H]2O)OC2C[C@@H](N)[C@@H](O[C@H]3[C@H](O)[C@@H](O)[C@H](N)C[C@@H]3N)OC2[C@@H]1O (some centres unmarked) [Apramycin, reference compound]
Staphylococcus aureus [1]
  zone of inhibition at 50 µg/mL: 21 mm
Acinetobacter baumannii
  zone of inhibition at 50 µg/mL: 20 mm
Enterococcus faecium
  zone of inhibition at 50 µg/mL: 21 mm

## O=C(O)c1cc(O)cc(O)c1 [Compound 1, 3,5-dihydroxybenzoic acid]
[2]; [5]
  IC50: 729 µM

## COC(=O)c1cc(O)cc(O)c1 [Compound 2, 3,5-dihydroxybenzoate methyl]
[2]; [5]
  IC50: 939 µM

## Cc1c(O)cc(C(=O)O)cc1O [Compound 3, 3,5-dihydroxy-4-methylbenzoic acid]
[2]
  IC50: 143 µM

## COc1c(O)cc(C(=O)O)cc1O [Compound 4, 3,5-dihydroxy-4-methoxylbenzoic acid]
[2]; [5]
  IC50: 929 µM

## Cc1cc(O)c(O)c(O)c1 [Compound 5, 3-hydroxyorcinol]
[2]; [5]
  IC50: 694 µM

## Cc1cc(O)c(C=O)c(O)c1 [Compound 6, atranol]
[2]
  IC50: > 1970 µM

## COC(=O)c1c(C)cc(O)c(C=O)c1O [Compound 7, methyl hematommate]
[2]; [5]
  IC50: 294 µM
alpha-glucosidase
  alpha-glucosidase inhibition (in words): potent activity

## COC(=O)c1c(C)cc(O)c(C)c1O [Compound 8, methyl β-orsellinate]
[3]
  MIC: 80 to 160 µg/mL
[2]
  IC50: > 1530 µM
Staphylococcus aureus [1]
  zone of inhibition at 50 µg/mL: 18 mm
Acinetobacter baumannii
  zone of inhibition at 50 µg/mL: 16 mm
Enterococcus faecium
  zone of inhibition at 50 µg/mL: 13 mm
Various microorganisms
  MIC: 30 to 500 µg/mL
alpha-glucosidase
  alpha-glucosidase inhibition (in words): weak inhibitors

## COC(=O)c1c(C)c(Br)c(O)c(C)c1O [Compound 8a, methyl 5-bromo-β-orsellinate]
[2]
  IC50: 606 µM
Staphylococcus aureus [1]
  zone of inhibition at 50 µg/mL: 12 mm

## COC(=O)c1c(C)cc(O)cc1O [Compound 9, methyl orsellinate]
[2]
  IC50: > 1650 µM
Staphylococcus aureus [1]
  zone of inhibition at 50 µg/mL: 13 mm
Various microorganisms
  MIC: 30 to 500 µg/mL
alpha-glucosidase
  alpha-glucosidase inhibition (in words): weak inhibitors

## COC(=O)c1c(C)c(Br)c(O)c(Br)c1O [Compound 9a, methyl 3,5-dibromo-orsellinate]
[2]
  IC50: 459 µM
Staphylococcus aureus [1]
  zone of inhibition at 50 µg/mL: 29 mm
Staphylococcus aureus [4]; read-out: MIC
  MIC: 4 µg/mL (≈ 11.8 µM)

## Cc1cc(O)cc(O)c1C(=O)OCC(O)C(O)CO [Compound 10, D-montagnetol]
[2]
  IC50: > 1100 µM

## Cc1cc(O)c(Br)c(O)c1C(=O)OCC(O)C(O)CO [Compound 10a, 3-bromo-D-montagnetol]
[2]
  IC50: 381 µM
Enterococcus faecium
  zone of inhibition at 50 µg/mL: 13 mm

## Cc1c(Br)c(O)c(Br)c(O)c1C(=O)OCC(O)C(O)CO [Compound 10b, 3,5-dibromo-D-montagnetol]
[2]
  IC50: 301 µM

## CCOC(=O)c1c(C)cc(O)cc1O [ethyl orsellinate]
Various microorganisms
  MIC: 30 to 500 µg/mL

## NC[C@H]1O[C@H](O[C@H]2[C@H](O)[C@@H](O[C@H]3O[C@H](CO)[C@@H](O)[C@H](N)[C@H]3O)[C@H](N)C[C@@H]2N)[C@H](O)[C@@H](O)[C@@H]1O [kanamycin, reference compound]
Staphylococcus aureus [4]
  MIC: 4 µg/mL (≈ 8.26 µM)

## Cc1cc(O)cc(O)c1 [orcinol]
Various microorganisms
  MIC: 30 to 500 µg/mL

## cristiferide A
alpha-glucosidase
  alpha-glucosidase inhibition (in words): potent activity
